Test system: 276233-004-R-J1-PDC KRAS spheroids with HUVEC/MSC, viability
Experiment: Anticancer human tumor 276233-004-R-J1-PDC patient-derived colon adenocarcinoma cell line growth inhibition [KRAS2]
Conditions: for viability, T/C: stronger effect = lower value
Method in brief: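 Combination screen of spheroid viability in tumor-cell co-cultures with endothelial (HUVEC) and mesenchymal stem cell stroma. Each agent was tested in half-log dilutions, topping at clinical Cmax or at 10 microM without a known Cmax.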

[1] = curve of first compound, second compound 0.1 µM
[2] = curve of first compound, second compound 0.316 µM
[3] = curve of first compound, second compound 1 µM
[4] = curve of first compound, second compound 3.16 µM
[5] = curve of first compound, second compound 10 µM
[6] = second compound 0.1 µM, first compound 0.0316 µM
[7] = second compound 0.1 µM, first compound 0.1 µM
[8] = second compound 0.1 µM, first compound 0.316 µM
[9] = second compound 0.1 µM, first compound 1 µM
[10] = second compound 0.316 µM, first compound 0.0316 µM
[11] = second compound 0.316 µM, first compound 0.1 µM
[12] = second compound 0.316 µM, first compound 0.316 µM
[13] = second compound 0.316 µM, first compound 1 µM
[14] = second compound 1 µM, first compound 0.0316 µM
[15] = second compound 1 µM, first compound 0.1 µM
[16] = second compound 1 µM, first compound 0.316 µM
[17] = second compound 1 µM, first compound 1 µM
[18] = second compound 3.16 µM, first compound 0.0316 µM
[19] = second compound 3.16 µM, first compound 0.1 µM
[20] = second compound 3.16 µM, first compound 0.316 µM
[21] = second compound 3.16 µM, first compound 1 µM
[22] = second compound 10 µM, first compound 0.0316 µM
[23] = second compound 10 µM, first compound 0.1 µM
[24] = second compound 10 µM, first compound 0.316 µM
[25] = second compound 10 µM, first compound 1 µM
[26] = second compound 0.1 µM, first compound 3.16 µM
[27] = second compound 0.1 µM, first compound 10 µM
[28] = second compound 0.316 µM, first compound 3.16 µM
[29] = second compound 0.316 µM, first compound 10 µM
[30] = second compound 1 µM, first compound 3.16 µM
[31] = second compound 1 µM, first compound 10 µM
[32] = second compound 3.16 µM, first compound 3.16 µM
[33] = second compound 3.16 µM, first compound 10 µM
[34] = second compound 10 µM, first compound 3.16 µM
[35] = second compound 10 µM, first compound 10 µM
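Note: cells exposed to agents for seven days before viability read.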
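Throughout, for viability, T/C: 100% = DMSO vehicle control wells and lower values mean fewer viable cells.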

CCN1CCN(Cc2ccc(Nc3ncc(F)c(-c4cc(F)c5nc(C)n(C(C)C)c5c4)n3)nc2)CC1 + C=CC(=O)N1CCN(c2nc(=O)n(-c3c(C)ccnc3C(C)C)c3nc(-c4c(O)cccc4F)c(F)cc23)C(C)C1
IC50 [1]: > 1 µM | IC50 [2]: > 1 µM | IC50 [3]: > 1 µM | IC50 [4]: > 1 µM | IC50 [5]: > 1 µM | viability, T/C (second compound 0.1 µM, first compound 0.00316 µM): 85.7% | viability, T/C (second compound 0.1 µM, first compound 0.01 µM): 105% | viability, T/C [6]: 83.5% | viability, T/C [7]: 98.2% | viability, T/C [8]: 88.1% | viability, T/C [9]: 106% | viability, T/C (second compound 0.316 µM, first compound 0.00316 µM): 100% | viability, T/C (second compound 0.316 µM, first compound 0.01 µM): 78.8% | viability, T/C [10]: 82.4% | viability, T/C [11]: 81.8% | viability, T/C [12]: 101% | viability, T/C [13]: 125% | viability, T/C (second compound 1 µM, first compound 0.00316 µM): 95% | viability, T/C (second compound 1 µM, first compound 0.01 µM): 118% | viability, T/C [14]: 93.7% | viability, T/C [15]: 88.8% | viability, T/C [16]: 110% | viability, T/C [17]: 101% | viability, T/C (second compound 3.16 µM, first compound 0.00316 µM): 92.7% | viability, T/C (second compound 3.16 µM, first compound 0.01 µM): 101% | viability, T/C [18]: 91.2% | viability, T/C [19]: 80.2% | viability, T/C [20]: 74.2% | viability, T/C [21]: 119% | viability, T/C (second compound 10 µM, first compound 0.00316 µM): 62.9% | viability, T/C (second compound 10 µM, first compound 0.01 µM): 68.2% | viability, T/C [22]: 69.7% | viability, T/C [23]: 70.3% | viability, T/C [24]: 87.1% | viability, T/C [25]: 65.4%

Cn1ncnc1[C@H]1c2n[nH]c(=O)c3cc(F)cc(c23)N[C@@H]1c1ccc(F)cc1
viability, T/C (compound 0.000316 µM): 96.7% [middle of 5 runs] | viability, T/C (compound 0.001 µM): 101% [middle of 5 runs] | viability, T/C (compound 0.1 µM): 102% [middle of 5 runs] | IC50 (curve of compound): > 0.1 µM

CC1(C)CCC(CN2CCN(c3ccc(C(=O)NS(=O)(=O)c4ccc(NCC5CCOCC5)c([N+](=O)[O-])c4)c(Oc4cnc5[nH]ccc5c4)c3)CC2)=C(c2ccc(Cl)cc2)C1 + CNCc1ccccc1-c1csc(C(C)Nc2nc(C)nc3cc(OC)c(OC)cc23)c1
IC50 [1]: > 10 µM | IC50 [2]: 7.26 µM | IC50 [3]: > 10 µM | IC50 [4]: < 0.0316 µM | IC50 [5]: < 0.0316 µM | viability, T/C [6]: 81.9% | viability, T/C [7]: 111% | viability, T/C [8]: 105% | viability, T/C [9]: 75.4% | viability, T/C [26]: 79.5% | viability, T/C [27]: 67.3% | viability, T/C [10]: 102% | viability, T/C [11]: 94.9% | viability, T/C [12]: 77.5% | viability, T/C [13]: 103% | viability, T/C [28]: 69.9% | viability, T/C [29]: 42.3% | viability, T/C [14]: 110% | viability, T/C [15]: 51.5% | viability, T/C [16]: 65.7% | viability, T/C [17]: 59.4% | viability, T/C [30]: 58.5% | viability, T/C [31]: 42% | viability, T/C [18]: 0.58% | viability, T/C [19]: 0.56% | viability, T/C [20]: 0.78% | viability, T/C [21]: 0.7% | viability, T/C [32]: 0.34% | viability, T/C [33]: 1.88% | viability, T/C [22]: 0.18% | viability, T/C [23]: 0.21% | viability, T/C [24]: 0.17% | viability, T/C [25]: 0.17% | viability, T/C [34]: 0.39% | viability, T/C [35]: 0.28%

Cn1nccc1Nc1nccc(-c2cc3c(s2)C(C)(C)N(CCN2CCOCC2)C3=O)n1 + CC1OCC2(CCN(c3cnc(Sc4ccnc(N)c4Cl)c(N)n3)CC2)C1N
IC50 [1]: 2.31 µM | IC50 [2]: 0.83 µM | IC50 [3]: 0.476 µM | IC50 [4]: 0.32 µM | IC50 [5]: < 0.0316 µM | viability, T/C [6]: 86.9% | viability, T/C [7]: 82.3% | viability, T/C [8]: 76.8% | viability, T/C [9]: 70.3% | viability, T/C [26]: 37.7% | viability, T/C [27]: 47% | viability, T/C [10]: 79.6% | viability, T/C [11]: 76.5% | viability, T/C [12]: 65.5% | viability, T/C [13]: 47.2% | viability, T/C [28]: 33.1% | viability, T/C [29]: 28.8% | viability, T/C [14]: 78.5% | viability, T/C [15]: 73.2% | viability, T/C [16]: 56.2% | viability, T/C [17]: 38% | viability, T/C [30]: 26% | viability, T/C [31]: 22.2% | viability, T/C [18]: 60.7% | viability, T/C [19]: 62.3% | viability, T/C [20]: 49.4% | viability, T/C [21]: 30.3% | viability, T/C [32]: 19.7% | viability, T/C [33]: 16.4% | viability, T/C [22]: 48.4% | viability, T/C [23]: 38.2% | viability, T/C [24]: 32.1% | viability, T/C [25]: 23.5% | viability, T/C [34]: 19% | viability, T/C [35]: 16.9%

COc1cc(Nc2ncc3c(n2)-c2ccc(Cl)cc2C(c2c(F)cccc2OC)=NC3)ccc1C(=O)O + CNCc1ccccc1-c1csc(C(C)Nc2nc(C)nc3cc(OC)c(OC)cc23)c1
IC50 [1]: > 10 µM | IC50 [2]: > 10 µM | IC50 [3]: > 10 µM | IC50 [4]: < 0.0316 µM | IC50 [5]: < 0.0316 µM | viability, T/C [6]: 103% | viability, T/C [7]: 110% | viability, T/C [8]: 75.7% | viability, T/C [9]: 104% | viability, T/C [26]: 95.7% | viability, T/C [27]: 84.2% | viability, T/C [10]: 107% | viability, T/C [11]: 93% | viability, T/C [12]: 99.1% | viability, T/C [13]: 97.7% | viability, T/C [28]: 91.9% | viability, T/C [29]: 94.6% | viability, T/C [14]: 80.4% | viability, T/C [15]: 86.1% | viability, T/C [16]: 111% | viability, T/C [17]: 85% | viability, T/C [30]: 72.1% | viability, T/C [31]: 66.3% | viability, T/C [18]: 5.21% | viability, T/C [19]: 1.97% | viability, T/C [20]: 1.67% | viability, T/C [21]: 4.48% | viability, T/C [32]: 4.94% | viability, T/C [33]: 0.76% | viability, T/C [22]: 2.44% | viability, T/C [23]: 3.58% | viability, T/C [24]: 0.22% | viability, T/C [25]: 0.22% | viability, T/C [34]: 0.73% | viability, T/C [35]: 0.99%

CCNC(=O)CC1N=C(c2ccc(Cl)cc2)c2cc(OC)ccc2-n2c(C)nnc21 (centres undefined) + C=CC(=O)N1CCN(c2nc(=O)n(-c3c(C)ccnc3C(C)C)c3nc(-c4c(O)cccc4F)c(F)cc23)C(C)C1
IC50 [1]: > 10 µM | IC50 [2]: > 10 µM | IC50 [3]: > 10 µM | IC50 [4]: > 10 µM | IC50 [5]: > 10 µM | viability, T/C [6]: 102% | viability, T/C [7]: 86.5% | viability, T/C [8]: 78.5% | viability, T/C [9]: 76.6% | viability, T/C [26]: 62.6% | viability, T/C [27]: 65.4% | viability, T/C [10]: 111% | viability, T/C [11]: 92.8% | viability, T/C [12]: 72% | viability, T/C [13]: 81.5% | viability, T/C [28]: 69.7% | viability, T/C [29]: 79.3% | viability, T/C [14]: 87.5% | viability, T/C [15]: 101% | viability, T/C [16]: 72.7% | viability, T/C [17]: 63.3% | viability, T/C [30]: 81% | viability, T/C [31]: 71.5% | viability, T/C [18]: 84.4% | viability, T/C [19]: 87.1% | viability, T/C [20]: 108% | viability, T/C [21]: 49.4% | viability, T/C [32]: 83.2% | viability, T/C [33]: 69.3% | viability, T/C [22]: 79.6% | viability, T/C [23]: 63.3% | viability, T/C [24]: 66.2% | viability, T/C [25]: 61.3% | viability, T/C [34]: 74.7% | viability, T/C [35]: 54.2%

CC(C)NCC(C(=O)N1CCN(c2ncnc3c2C(C)CC3O)CC1)c1ccc(Cl)cc1 (centres undefined) + CNCc1ccccc1-c1csc(C(C)Nc2nc(C)nc3cc(OC)c(OC)cc23)c1
IC50 [1]: > 10 µM | IC50 [2]: > 10 µM | IC50 [3]: 0.563 µM | IC50 [4]: < 0.0316 µM | IC50 [5]: < 0.0316 µM | viability, T/C [6]: 77.2% | viability, T/C [7]: 69.9% | viability, T/C [8]: 79.5% | viability, T/C [9]: 78.8% | viability, T/C [26]: 66% | viability, T/C [27]: 53.6% | viability, T/C [10]: 88.3% | viability, T/C [11]: 96.1% | viability, T/C [12]: 76.4% | viability, T/C [13]: 70.6% | viability, T/C [28]: 70.4% | viability, T/C [29]: 58.6% | viability, T/C [14]: 66.9% | viability, T/C [15]: 50.1% | viability, T/C [16]: 78.5% | viability, T/C [17]: 34.9% | viability, T/C [30]: 23.9% | viability, T/C [31]: 38.2% | viability, T/C [18]: 0.57% | viability, T/C [19]: 0.54% | viability, T/C [20]: 0.43% | viability, T/C [21]: 0.58% | viability, T/C [32]: 0.56% | viability, T/C [33]: 0.49% | viability, T/C [22]: 0.2% | viability, T/C [23]: 0.22% | viability, T/C [24]: 0.18% | viability, T/C [25]: 0.2% | viability, T/C [34]: 1.04% | viability, T/C [35]: 0.31%
